According to US20060128577A1, “Use of alkoxylated hydroxycarboxylic acid esters for solubilizing perfume oils in water” (priority 2004, published 2006):

Assay: Solubilizing effect of surfactants for perfume oil in water (10% by weight aqueous surfactant solution, perfume oil quantity before clouding)
Type: physicochemical
Details: 10% by weight aqueous solution of surfactant, higher = better solubilizing effect
Protocol: 1. In order to test the effect according to the invention, a 10% by weight aqueous solution of various surfactants was prepared. To this end, the surfactant was first mixed with the perfume oil and water was then added. The higher the percentage content of perfume oil, the better the solubilizing effect of the surfactant. In Table 1 below, V stands for known products and E for alkoxylated esters according to the invention.
Examples E1 and E2 according to the invention use a citric acid ester as described in 1.1 or 1.2.

Substance: 2-Hydroxy-C12-(PO)1-(EO)9-glycol ether [Example V1a]
- Quantity (% by wt.) before clouding (perfume oil: Lemon oil terpene): 4 % by wt.
- Quantity (% by wt.) before clouding (perfume oil: Octyl aldehyde): 2 % by wt.
- Quantity (% by wt.) before clouding (perfume oil: Orange oil): 4 % by wt.
